Data from publication PMC5830615 (Scientific Reports, 2018).

Assays:
[1] = system: H188 (Epac1-based cAMP biosensor); assay: FRET response of biosensor H188 to cAMP analogs and Epac inhibitors in HEK293-H188-C24 cells; format: cell-based; conditions: for Effect on ΔFRET measured in response to 8-pCPT-2′-O-Me-cAMP-AM: Epac inhibitor co-applied
Description: H188 contains the cAMP sensor Epac1 in which the full-length protein is truncated to remove the Disheveled, Egl-10, and Pleckstrin (DEP) membrane-targeting domain so that its expression is confined largely to the cytoplasm (Fig. 2a,b)[30]. T781A and F782A mutations introduced within the CDC25 homology domain disrupt guanine nucleotide exchange factor (GEF) activity so that binding of cAMP to H188 is not linked to downstream signaling events mediated by the Epac1 effector protein Rap1 GTPase (Fig. 2a)[30]. In H188 the Epac1 backbone is flanked by an mTurquoise2Δ FRET donor chromophore at the N-terminus, and tandem cp173 Venus-Venus FRET acceptor chromophores at the C-terminus (Fig. 2a). Binding of cAMP reduces FRET so that when exciting with 440 nm light, there is an increase of 485 nm (mTuquoise2Δ) and a decrease of 535 nm (cp173 Venus-Venus) emission fluorescence. This ΔFRET is measured as an increase of the 485/535 nm FRET ratio.
HEK293-H188-C24 cells stably expressing H188 were plated at 80% confluence on 96-well clear-bottom assay plates (Costar 3904, Corning, NY) coated with rat tail collagen (Collaborative Biomedical Products, Bedford, MA). HEK293 cells stably expressing select GPCRs were transduced for 16 hours with H188 virus at a density of ca. 60,000 cells/well under conditions in which the multiplicity of infection (m.o.i.) was equivalent to 25 viral particles per cell. For all assays, the culture media was then removed and replaced by 200 μl/well of a standard extracellular saline (SES) solution supplemented with 11 mM glucose and 0.1% BSA[31],[34]–[36]. The composition of the SES was (in mM): 138 NaCl, 5.6 KCl, 2.6 CaCl2, 1.2 MgCl2, 11.1 glucose, and 10 Hepes (295 mOsmol, pH 7.4). Real-time kinetic assays of FRET were performed using a FlexStation 3 microplate reader equipped with monochromators (Molecular Devices, Sunnyvale, CA). Excitation light was delivered at 435/9 nm (455 nm cut-off), and emitted light was detected at 485/15 nm (CFP) or 535/15 nm (YFP)[31],[34]–[36]. The emission intensities were the averages of 12 excitation flashes for each time point per well. Test solutions dissolved in SES were placed in V-bottom 96-well plates (Greiner Bio-One, Monroe, NC), and an automated pipetting procedure was used to transfer 50 μl of each test solution to each well of the assay plate containing monolayers of these cells. The 485/535 emission ratio was calculated for each well and the mean +/− s.d. values for 12 wells were averaged. To facilitate comparisons amongst different experiments, these FRET ratio values were normalized using baseline subtraction so that a y-axis value of 1 corresponds to the initial baseline FRET ratio, whereas a value of 2 corresponds to a doubling of the FRET ratio. The time course of the ΔFRET ratio was plotted after exporting data to Origin 8.0 (OriginLab, Northampton, MA). Origin 8.0 was also used for generation of Hill plots describing dose-response relationships.

[2] = target: T1, human NPY2R (Homo sapiens, UniProt P49146); assay: FRET assay, inhibition of adenosine-stimulated cAMP production in HEK293-H188-C24 cells transfected with human NPY2R; format: cell-based; conditions: BIIE0246 300 nM; adenosine 2 μM
T1 construct: 3xHA (own knowledge: 'TN' in the cDNA Resource Center clone ID denotes an N-terminal 3xHA tag); host or cells: HEK293-H188-C24 (transient transfection, pcDNA3.1)
T1 sequence (P49146 1-381): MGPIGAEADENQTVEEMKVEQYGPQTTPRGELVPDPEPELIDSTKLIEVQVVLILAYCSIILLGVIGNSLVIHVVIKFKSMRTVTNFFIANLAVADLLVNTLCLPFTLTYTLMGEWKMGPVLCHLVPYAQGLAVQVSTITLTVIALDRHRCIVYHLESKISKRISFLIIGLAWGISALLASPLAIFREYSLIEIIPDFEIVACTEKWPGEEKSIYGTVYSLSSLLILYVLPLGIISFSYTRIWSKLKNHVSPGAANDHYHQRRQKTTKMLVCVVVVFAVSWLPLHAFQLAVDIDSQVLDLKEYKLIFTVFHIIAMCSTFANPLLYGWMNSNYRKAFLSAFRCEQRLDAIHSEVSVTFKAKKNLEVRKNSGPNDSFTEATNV
Procedure: (§1) Transient transfections were performed using Lipofectamine and Plus Reagent (Thermo Fisher) using methodology described previously by our laboratory for HEK293 cells. […] Plasmid encoding human NPY2R (I.D. NPYR20TN00) in pcDNA3.1 was from the University of Missouri-Rolla cDNA Resource Center (Rolla, MO). Individual clones of HEK293 cells stably expressing select FRET reporters were obtained by G418 antibiotic resistance selection, as described previously. Adenovirus for transduction of HEK293 cells with H188 was generated by a commercial vendor (ViraQuest, North Liberty, IA) using the shuttle vector pVQAd CMV K-NpA and the H188 plasmid originally created by Klarenbeek and co-workers[30].
(§2) HEK293-H188-C24 cells stably expressing H188 were plated at 80% confluence on 96-well clear-bottom assay plates (Costar 3904, Corning, NY) coated with rat tail collagen (Collaborative Biomedical Products, Bedford, MA). […] Real-time kinetic assays of FRET were performed using a FlexStation 3 microplate reader equipped with monochromators (Molecular Devices, Sunnyvale, CA). Excitation light was delivered at 435/9 nm (455 nm cut-off), and emitted light was detected at 485/15 nm (CFP) or 535/15 nm (YFP)[31],[34]–[36]. […]

[3] = system: human GLP-1R; assay: FRET cAMP assay in HEK293-GLP-1R cells (stable human GLP-1R) virally transduced with H188; format: cell-based; conditions: HEK293-GLP-1R cells transduced with H188
Procedure: (§3) HEK293-H188-C24 cells stably expressing H188 were plated at 80% confluence on 96-well clear-bottom assay plates (Costar 3904, Corning, NY) coated with rat tail collagen (Collaborative Biomedical Products, Bedford, MA). HEK293 cells stably expressing select GPCRs were transduced for 16 hours with H188 virus at a density of ca. 60,000 cells/well under conditions in which the multiplicity of infection (m.o.i.) was equivalent to 25 viral particles per cell. For all assays, the culture media was then removed and replaced by 200 μl/well of a standard extracellular saline (SES) solution supplemented with 11 mM glucose and 0.1% BSA[31],[34]–[36]. The composition of the SES was (in mM): 138 NaCl, 5.6 KCl, 2.6 CaCl2, 1.2 MgCl2, 11.1 glucose, and 10 Hepes (295 mOsmol, pH 7.4). Real-time kinetic assays of FRET were performed using a FlexStation 3 microplate reader equipped with monochromators (Molecular Devices, Sunnyvale, CA). Excitation light was delivered at 435/9 nm (455 nm cut-off), and emitted light was detected at 485/15 nm (CFP) or 535/15 nm (YFP)[31],[34]–[36]. The emission intensities were the averages of 12 excitation flashes for each time point per well.

[4] = system: wild-type HEK293 cells; assay: FRET cAMP assay in wild-type HEK293 cells transduced with H188 (negative control); format: cell-based, human; conditions: WT HEK293 lacking recombinant receptors, H188 virus; IBMX at 50 μM
Procedure: as §3

[5] = system: HEK293-H188-C24 cells, empty vector (EV); assay: FRET cAMP assay in HEK293-H188-C24 cells transfected with negative control empty vector; format: cell-based, human; conditions: GLP-1 and exendin-4 at 10 nM
Procedure: as §1, §2

[6] = system: adenosine A2B receptor; assay: FRET cAMP assay, endogenous adenosine A2B receptors in untransfected HEK293-H188-C24 cells; format: cell-based, human; conditions: read-out: Kd for antagonist action versus adenosine; versus 4 μM adenosine
Procedure: HEK293 cells stably expressing select GPCRs were transduced for 16 hours with H188 virus at a density of ca. 60,000 cells/well under conditions in which the multiplicity of infection (m.o.i.) was equivalent to 25 viral particles per cell. For all assays, the culture media was then removed and replaced by 200 μl/well of a standard extracellular saline (SES) solution supplemented with 11 mM glucose and 0.1% BSA[31],[34]–[36]. […] Real-time kinetic assays of FRET were performed using a FlexStation 3 microplate reader equipped with monochromators (Molecular Devices, Sunnyvale, CA). […] The emission intensities were the averages of 12 excitation flashes for each time point per well.

Q: Which “Effect on ΔFRET measured in response to forskolin” value [1] does the source give for `CC(=O)Oc1ccc(CO)cc1` [4-Abn-OH, 4-acetoxybenzyl alcohol] here?
A: not blocked

Q: How did the “Effect on inhibitory actions of EP45 (1,000 nM) and PYY(3–36) (300 nM)” value [2] turn out when `N=C(N)NCCC[C@H](NC(=O)CC1(CC(=O)N2CCN(C3c4ccccc4NC(=O)c4ccccc43)CC2)CCCC1)C(=O)NCCn1c(=O)n(-c2ccccc2)n(-c2ccccc2)c1=O` (stereo partly shown) [BIIE0246] was run?
A: reduced the inhibitory actions

Q: How did the “Effect on baseline FRET ratio when administered alone” value [1] turn out when `CC1CCc2c(cc(Br)c(F)c2Br)N1C=O` (stereo not shown) [CE3F4] was run?
A: unaffected

Q: And the “Effect on ΔFRET measured in response to 8-pCPT-2′-O-Me-cAMP-AM” value [1]?
A: reduced

Q: With `Nc1ncnc2c1ncn2[C@H]1CC[C@@H](CO)O1` [DDA] as the molecule, how does the “Effect on the cAMP-elevating action of GLP-1” value [3] read?
A: suppressed the action of GLP-1

Q: `Cc1ccc(S(=O)(=O)c2c(C)cc(C)cc2C)cc1` [ESI-05] was tested. Which “Effect on baseline FRET ratio when administered alone” value [1] did it give?
A: unaffected

Q: What about the “Effect on ΔFRET measured in response to 8-pCPT-2′-O-Me-cAMP-AM” value [1] of the same molecule?
A: without effect

Q: Which results are given for `CC[C@H](C)[C@H](NC(=O)[C@H](Cc1ccccc1)NC(=O)[C@H](CCC(=O)O)NC(=O)[C@H](CCCCN)NC(=O)[C@H](C)NC(=O)[C@H](C)NC(=O)[C@H](CCC(N)=O)NC(=O)CNC(=O)[C@H](CCC(=O)O)NC(=O)[C@H](CC(C)C)NC(=O)[C@H](Cc1ccc(O)cc1)NC(=O)[C@H](CO)NC(=O)[C@H](CO)NC(=O)[C@@H](NC(=O)[C@H](CC(=O)O)NC(=O)[C@H](CO)NC(=O)[C@@H](NC(=O)[C@H](Cc1ccccc1)NC(=O)[C@@H](NC(=O)CNC(=O)[C@H](CCC(=O)O)NC(=O)[C@H](C)NC(=O)[C@@H](N)Cc1c[nH]cn1)[C@@H](C)O)[C@@H](C)O)C(C)C)C(=O)N[C@@H](C)C(=O)N[C@@H](Cc1c[nH]c2ccccc12)C(=O)N[C@@H](CC(C)C)C(=O)N[C@H](C(=O)N[C@@H](CCCCN)C(=O)NCC(=O)N[C@@H](CCCNC(=N)N)C(N)=O)C(C)C` [GLP-1, glucagon-like peptide-1]?
A: Effect on levels of cAMP in wild-type HEK293 cells [4]: no such effect; Effect on levels of cAMP in empty vector cells [5]: without effect

Q: Which Kd [6] does the source give for `CCCn1c(=O)c2[nH]c(-c3cnn(Cc4cccc(C(F)(F)F)c4)c3)nc2n(CC)c1=O` [GS6201] here?
A: 0.163 µM
